Publication PMC12799362, “The effect of dimeric bisbenzimidazoles on the activity of DNA repair enzymes TDP1, TDP2, PARP1 and PARP2” (Vavilov Journal of Genetics and Breeding, 2025)

How the values were obtained:
[1] = target: T1, poly(ADP-ribose) polymerase 1 (PARP1) (Homo sapiens, UniProt P09874); experiment: PARP1 auto-poly(ADP-ribosyl)ation with [32P]-NAD+; type: biochemical; details: compound 500 μM, PARP1 200 nM, 0.3 mM [32P]-NAD+, 2 min, 37 °C; mean ± SD; read-out: PARP1 % of residual activity (500 μM)
T1 construct: made in house; host or cells: insect cells (baculovirus expression system)
Description: (§1) Recombinant human proteins tyrosyl-DNA phosphodiesterase 1 (TDP1) and tyrosyl-DNA phosphodiesterase 2 (TDP2) were expressed in the E. coli system, poly(ADP-ribose) polymerase 1 (PARP1) and poly(ADP-ribose) polymerase 2 (PARP2) were expressed in insect cells using a baculovirus expression system and purified as described in (Sukhanova et al., 2004; Sherstyuk et al., 2019; Dyrkheeva et al., 2020, 2021).
(§2) Determination of PARP1 and PARP2 activity. For determination of PARP1 and PARP2 enzyme activity in the presence and absence of test compounds, radiolabeled [32P]-NAD⁺ was synthesized from α-[32P]-ATP according to the protocol (Sherstyuk et al., 2019). The auto-poly(ADPribosyl) ation reaction was performed in buffer for PARP1: 50 mM Tris-HCl, pH 8.0, 10 mM MgCl2, 150 mM NaCl, and 7 mM β-mercaptoethanol, as well as 2 A260 units/ml activated DNA, 0.3 mM [32P]-NAD⁺ at 37 °C. The reaction was initiated by addition of PARP1 to 200 nM and carried out for 2 min
(§3) The buffer for PARP2 contained: 50 mM Tris-HCl, pH 8.0, 3 mM spermine, 150 mM NaCl, and 7 mM β-mercaptoethanol, 2 A260 units/ml activated DNA, 0.6 mM [32P]-NAD⁺ at 37 °C. The reaction was initiated by addition of PARP2 to 600 nM, and the reaction mixtures were incubated for 5 min. The reaction was stopped by placing 5 μl aliquots on Whatman 1 paper filters impregnated with 5 % trichloroacetic acid (TCA). The filters were washed with 5 % TCA four times and air-dried after removal of TCA with 90 % ethanol. The incorporation of the radioactive label into the reaction product was calculated using a Typhoon FLA 9500 scanner (GE Healthcare, Chicago, Illinois, USA). At least three independent experiments were performed.

[2] = target: T2, tyrosyl-DNA phosphodiesterase 1 (TDP1) (Homo sapiens, UniProt Q9NUW8); experiment: Real-time fluorescent detection of TDP1 activity (BHQ1 cleavage from 3′-end of single-stranded FAM oligonucleotide); type: biochemical; details: recombinant TDP1 1.5 nM, 50 nM single-stranded oligonucleotide, 26 °C; mean ± SD, at least three replicates
T2 construct: made in house; host or cells: E. coli
Protocol: as §1
Determination of TDP1 activity. The reaction mixture (200 μl) for real-time fluorescent detection of TDP1 enzyme activity (Zakharenko et al., 2015) contained TDP1 reaction buffer (50 mM Tris-HCl, pH 8.0, 50 mM NaCl, and 7 mM β-mercaptoethanol), 50 nM oligonucleotide 5′-FAM-AAC GTC AGG GTC TTC C-BHQ1-3′, the test compound at various concentrations, and TDP1 at a final concentration of 1.5 nM. The reaction mixtures were incubated at a constant temperature of 26 °C in a POLARstar OPTIMA microplate fluorometer (BMG LABTECH, GmbH, Ortenberg, Germany). Fluorescence intensity (Ex485/Em520 nm) was measured every minute for 10 min. Mean values of half-maximal inhibitory concentration (IC50 – the concentration of the compound that inhibited 50 % of enzyme activity compared to the untreated control well containing only enzyme and substrate) were determined using a dose-response curve of the fluorescence signal level versus inhibitor concentration and calculated using MARS Data Analysis 2.0 (BMG LABTECH). Kinetic curves were obtained in at least three independent experiments and statistically processed in OriginPro 8.6.0 (OriginLab, Northampton, Massachusetts, USA).
The third group of compounds includes derivatives of the monomeric compound MB2Py(Ac), which is an isosteric analog of MB3, due to the fact that the pyrrolecarboxamide fragment contained in its structure can act as a hydrogen atom donor at the carboxamide nitrogen for hydrogen bond formation, in a position analogous to benzimidazole. Dimeric derivatives are represented by the DB2Py(n) series containing n-alkyldicarboxylic acids as a linker. This series is represented by a set of compounds containing 1, 3, 4, 5, 7, 9, and 11 methylene units, which allowed for a more accurate assessment of the dependence of the inhibitory activity of compounds on spacer length. The DB2Py(n) series differs from the DB3(n) series by the presence, in addition to the bisbenzimidazole structure, of a pyrrolecarboxamide structure, which is a fragment of the AT-specific antibiotic netropsin.Using the real-time fluorescence analysis method, halfmaximal inhibitory concentration (IC50) values of the studied compounds (see the Table) were obtained in the reaction of BHQ1 cleavage from the 3′-end of the oligonucleotide by TDP1, which led to an increase in FAM fluorescence at the 5′-end of the chain (Zakharenko et al., 2015). It should also be noted that a single-stranded oligonucleotide was used as substrate to exclude the binding of dimeric bisbenzimidazoles as minor-groove ligands to the DNA substrate and direct their action toward the enzymatic target.

[3] = target: T3, tyrosyl-DNA phosphodiesterase 2 (TDP2) (Homo sapiens, UniProt O95551); experiment: TDP2 activity, removal of 5′-tyrosine from oligonucleotide substrate, denaturing PAGE; type: biochemical; details: inhibitor 500 μM, TDP2 200 nM, substrate 100 nM, 10 min, 37 °C; mean ± SD; read-out: TDP2 % of residual activity (500 μM)
T3 construct: made in house; host or cells: E. coli
T3 sequence (O95551 1-362): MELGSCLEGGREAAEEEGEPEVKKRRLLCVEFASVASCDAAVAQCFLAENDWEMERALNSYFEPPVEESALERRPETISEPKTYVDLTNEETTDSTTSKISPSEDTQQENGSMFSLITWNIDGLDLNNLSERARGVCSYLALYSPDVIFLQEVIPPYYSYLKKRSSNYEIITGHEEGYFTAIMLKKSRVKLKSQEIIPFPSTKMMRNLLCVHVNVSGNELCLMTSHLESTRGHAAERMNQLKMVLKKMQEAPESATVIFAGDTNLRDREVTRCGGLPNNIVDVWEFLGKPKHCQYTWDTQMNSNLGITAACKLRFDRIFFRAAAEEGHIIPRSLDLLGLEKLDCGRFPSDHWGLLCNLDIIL
Description: as §1
Determination of TDP2 activity. For determination of TDP2 enzyme activity, an oligonucleotide 5′-tyrosine-AAC GTC AGG GTC TTC C-FAM-3′ containing a 6-FAM label at the 3′-end and an L-tyrosine residue attached via the phenolic OH group to the 5′-terminal phosphate was used as substrate, synthesized at the Russian-French-Japanese Laboratory of Bionanotechnology of Novosibirsk State University as described in (Dyrkheeva et al., 2021). The substrate at a concentration of 100 nM was incubated with TDP2 at a concentration of 200 nM in the absence or presence of inhibitor (500 μM) for 10 min at 37 °C in buffer containing 50 mM Tris-HCl, pH 8.0, 50 mM NaCl, 7 mM β-mercaptoethanol (Dyrkheeva et al., 2021). The reaction was stopped by addition of PAGE loading buffer (TBE, 10 % formamide, 7 M urea, 20 mM EDTA, 0.1 % xylene cyanol, and 0.1 % bromophenol blue). The samples were then heated at 90 °C for 5 min. The enzymatic reaction products were separated by electrophoresis in 20 % denaturing PAGE with 7 M urea at an acrylamide to bisacrylamide ratio of 19:1. A high-resolution Typhoon FLA 9500 laser scanner (GE Healthcare, Chicago, Illinois, USA) was used for gel scanning and visualization, and the data were analyzed using QuantityOne 4.6.7 software (Bio- Rad Laboratories, Inc., Hercules, California, USA). At least three independent experiments were performed, and statistical processing was carried out using OriginPro 8.6.0 (OriginLab, Northampton, Massachusetts, USA).
To study the effect of the studied compounds on TDP2 activity, we tested the ability of this enzyme to remove the tyrosine residue from the 5′-end of the oligonucleotide substrate in the absence and presence of inhibitors, as described in (Dyrkheeva et al., 2021).

[4] = tested on: poly(ADP-ribose) polymerase 2 (PARP2); experiment: PARP2 auto-poly(ADP-ribosyl)ation with [32P]-NAD+; type: biochemical, human; details: compound 500 μM, PARP2 600 nM, 0.6 mM [32P]-NAD+, 5 min, 37 °C; mean ± SD
Description: as §1, §2, §3

T2 sequence (Q9NUW8 whole entry): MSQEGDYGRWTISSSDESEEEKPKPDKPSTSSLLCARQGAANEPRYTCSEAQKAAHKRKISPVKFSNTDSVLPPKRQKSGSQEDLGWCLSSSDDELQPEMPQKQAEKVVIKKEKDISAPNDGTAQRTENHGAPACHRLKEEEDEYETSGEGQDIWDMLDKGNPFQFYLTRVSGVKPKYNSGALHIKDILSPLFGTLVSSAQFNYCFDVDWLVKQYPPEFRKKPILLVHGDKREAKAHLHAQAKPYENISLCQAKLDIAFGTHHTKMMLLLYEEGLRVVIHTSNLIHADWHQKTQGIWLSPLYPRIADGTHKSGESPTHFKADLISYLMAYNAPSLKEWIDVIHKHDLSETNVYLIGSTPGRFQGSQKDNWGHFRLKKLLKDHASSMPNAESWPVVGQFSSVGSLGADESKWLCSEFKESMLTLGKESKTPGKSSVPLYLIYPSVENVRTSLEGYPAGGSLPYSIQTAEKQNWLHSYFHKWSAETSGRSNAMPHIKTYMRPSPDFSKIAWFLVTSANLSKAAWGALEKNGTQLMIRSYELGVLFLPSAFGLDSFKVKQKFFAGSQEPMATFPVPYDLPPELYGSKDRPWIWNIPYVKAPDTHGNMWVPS
T1 sequence (P09874 whole entry): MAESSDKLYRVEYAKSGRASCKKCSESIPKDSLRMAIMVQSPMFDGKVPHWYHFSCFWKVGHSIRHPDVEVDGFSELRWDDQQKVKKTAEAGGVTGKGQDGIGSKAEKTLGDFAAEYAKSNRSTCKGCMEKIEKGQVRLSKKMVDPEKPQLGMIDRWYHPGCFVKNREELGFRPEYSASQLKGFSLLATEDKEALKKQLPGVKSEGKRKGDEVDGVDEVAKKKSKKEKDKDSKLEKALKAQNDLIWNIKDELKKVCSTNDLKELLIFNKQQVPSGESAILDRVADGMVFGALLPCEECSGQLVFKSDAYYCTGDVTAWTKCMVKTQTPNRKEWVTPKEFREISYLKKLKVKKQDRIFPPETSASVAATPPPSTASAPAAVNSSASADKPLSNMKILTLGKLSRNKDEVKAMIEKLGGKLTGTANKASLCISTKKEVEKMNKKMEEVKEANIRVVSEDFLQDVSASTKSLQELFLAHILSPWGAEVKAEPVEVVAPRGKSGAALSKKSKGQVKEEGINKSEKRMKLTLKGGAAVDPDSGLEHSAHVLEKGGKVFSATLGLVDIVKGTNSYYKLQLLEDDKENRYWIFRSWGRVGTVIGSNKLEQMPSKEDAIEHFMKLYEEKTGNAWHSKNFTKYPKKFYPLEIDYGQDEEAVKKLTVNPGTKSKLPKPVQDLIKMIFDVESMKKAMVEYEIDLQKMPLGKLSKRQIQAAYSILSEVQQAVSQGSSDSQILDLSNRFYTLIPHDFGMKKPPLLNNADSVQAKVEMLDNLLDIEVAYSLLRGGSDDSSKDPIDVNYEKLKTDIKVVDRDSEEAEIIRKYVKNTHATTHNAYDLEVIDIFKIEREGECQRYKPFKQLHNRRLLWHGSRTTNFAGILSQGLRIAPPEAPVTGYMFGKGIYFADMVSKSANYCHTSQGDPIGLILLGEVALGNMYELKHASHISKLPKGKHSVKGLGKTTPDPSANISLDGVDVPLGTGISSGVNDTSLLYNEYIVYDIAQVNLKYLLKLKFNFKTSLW

SMILES	remaining activity at 500 µM [1] [%]	IC50 [2] [nM]	remaining activity at 500 µM [3] [%]	PARP2 % of residual activity (500 μM) [4]
CN1CCN(c2ccc3nc(-c4ccc5nc(-c6ccc7nc(CNC(=O)CCCCCC(=O)NCc8nc9ccc(-c%10nc%11ccc(-c%12nc%13ccc(N%14CCN(C)CC%14)cc%13[nH]%12)cc%11[nH]%10)cc9[nH]8)[nH]c7c6)[nH]c5c4)[nH]c3c2)CC1 [DB3(5)]	62 ± 16	> 50000	65 ± 10	~ 100%
CN1CCN(c2ccc3nc(-c4ccc5nc(-c6ccc7nc(CNC(=O)CCCCCCCCCC(=O)NCc8nc9ccc(-c%10nc%11ccc(-c%12nc%13ccc(N%14CCN(C)CC%14)cc%13[nH]%12)cc%11[nH]%10)cc9[nH]8)[nH]c7c6)[nH]c5c4)[nH]c3c2)CC1 [DB3(9)]	~100	> 50000	~100	~ 100%
CN1CCN(c2ccc3nc(-c4ccc5nc(-c6ccc7nc(CNC(=O)CN8CCN(CC(=O)NCc9nc%10ccc(-c%11nc%12ccc(-c%13nc%14ccc(N%15CCN(C)CC%15)cc%14[nH]%13)cc%12[nH]%11)cc%10[nH]9)CC8)[nH]c7c6)[nH]c5c4)[nH]c3c2)CC1 [DB3P(1)]	70 ± 12	100 ± 50	~100	~ 100%
CN1CCN(c2ccc3nc(-c4ccc5nc(-c6ccc7nc(CNC(=O)CCN8CCN(CCC(=O)NCc9nc%10ccc(-c%11nc%12ccc(-c%13nc%14ccc(N%15CCN(C)CC%15)cc%14[nH]%13)cc%12[nH]%11)cc%10[nH]9)CC8)[nH]c7c6)[nH]c5c4)[nH]c3c2)CC1 [DB3P(2)]	40 ± 5	110 ± 10	~100	~ 100%
CN1CCN(c2ccc3nc(-c4ccc5nc(-c6ccc7nc(CNC(=O)CCCN8CCN(CCCC(=O)NCc9nc%10ccc(-c%11nc%12ccc(-c%13nc%14ccc(N%15CCN(C)CC%15)cc%14[nH]%13)cc%12[nH]%11)cc%10[nH]9)CC8)[nH]c7c6)[nH]c5c4)[nH]c3c2)CC1 [DB3P(3)]	47 ± 14	200 ± 50	~100	~ 100%
CN1CCN(c2ccc3nc(-c4ccc5nc(-c6ccc7nc(CNC(=O)CCCCN8CCN(CCCCC(=O)NCc9nc%10ccc(-c%11nc%12ccc(-c%13nc%14ccc(N%15CCN(C)CC%15)cc%14[nH]%13)cc%12[nH]%11)cc%10[nH]9)CC8)[nH]c7c6)[nH]c5c4)[nH]c3c2)CC1 [DB3P(4)]	48 ± 15	150 ± 30	~100	~ 100%
CC(=O)NCc1nc2ccc(-c3nc4ccc(N5CCN(C)CC5)cc4[nH]3)cc2[nH]1 [MB2(Ac)]	~100	1500 ± 500	~100	~ 100%
CCCn1cc(NC(C)=O)cc1-c1nc2ccc(-c3nc4ccc(N5CCN(C)CC5)cc4[nH]3)cc2[nH]1 [MB2Py(Ac)]	~100	5000 ± 2000	~100	~ 100%
CN1CCN(c2ccc3nc(-c4ccc5nc(CN)[nH]c5c4)[nH]c3c2)CC1 [MB2]	~100	2000 ± 1000	~100	~ 100%
CN1CCN(c2ccc3nc(-c4ccc5nc(-c6ccc7nc(CN)[nH]c7c6)[nH]c5c4)[nH]c3c2)CC1 [MB3]	65 ± 15	700 ± 50	~100	~ 100%
